Test results: US20060069132A1, “Azolecarboxamide herbicides” (priority 2004, published 2006)

Tested on: wheat cv. Retical
Assay: Test H safening on wheat by naphthalic anhydride seed treatment, pre-/postemergence
Type: in vivo, Triticum aestivum
Design: key to Response of wheat, Without naphthalic anhydride seed treatment: 0 = no effect, 100 = complete plant death, vs untreated control
Description: This test evaluated the safening of compounds of the invention on wheat (Triticum aestivumL.) cv. ‘Retical’ by seed treatment with naphthalic anhydride. Some of the wheat seed was treated with napthalic anhydride as a 1% by weight seed dressing. The wheat seed were planted in pots containing pasteurized Sassafras sandy loam soil. For postemergence testing the plants were grown 8 days to the 2-leaf stage at time of treatment. Preemergence treatments were applied the same day that the seeds were planted. Treatments were applied by spraying the test compounds formulated in a non-phytotoxic solvent mixture, using a flat fan nozzle and a spray volume of 280 L/ha. The preemergence treatments were triply replicated and the results subsequently averaged. The pots were placed on a growth chamber bench using a complete randomized block design for the preemergence test except for the first replicate, which was unrandomized. The plants were grown in the growth chamber and watered as needed with a dilute nutrient solution containing 200 ppm of N. Illumination was provided by fluorescent lamps giving 200-300 μE/m^2/S of photosynthetically active radiation over a 14-hour photoperiod. The temperature was maintained at 23±2° C. during the day and 17±2° C. at night. The effects of the treatments were rated 25 days after preemergence treatment and 14 days after postemergence treatment. The plant response was visually rated in comparison to untreated controls using a scale of 0 to 100, with 0 representing no effect and 100 representing complete plant death. The results for the compounds tested preemergence are listed in Table H1, and the results for the compounds tested postemergence are listed in Table H2.

CCNC(=O)c1ccc(F)c(NC(=O)c2cc(C(C)(C)C)nn2CC)c1 [Compound 2, 3-(1,1-dimethylethyl)-1-ethyl-N-[5-[(ethylamino)carbonyl]-2-fluorophenyl]-1H-pyrazole-5-carboxamide]
Response of wheat, With 1% naphthalic anhydride seed treatment (postemergence, 62 g a.i./ha): 30 | Response of wheat, Without naphthalic anhydride seed treatment (postemergence, 62 g a.i./ha): 60 | Response of wheat, With 1% naphthalic anhydride seed treatment (postemergence, 125 g a.i./ha): 65 | Response of wheat, Without naphthalic anhydride seed treatment (postemergence, 125 g a.i./ha): 75 | Response of wheat, With 1% naphthalic anhydride seed treatment (preemergence, 62 g a.i./ha): 50 | Response of wheat, Without naphthalic anhydride seed treatment (preemergence, 62 g a.i./ha): 62 | Response of wheat, With 1% naphthalic anhydride seed treatment (preemergence, 125 g a.i./ha): 72 | Response of wheat, Without naphthalic anhydride seed treatment (preemergence, 125 g a.i./ha): 82
